Laboratory results as given in article PMC9499463, “Potent Chlorambucil-Platinum(IV) Prodrugs” (International Journal of Molecular Sciences, 2022).
Several values for one entry are separate records, joined by “and”; a condition that tells them apart may be missing. Equal values may be shown once.

Columns and labels:
HT29 colon cells = assay: ROS detection assay (DCFH-DA fluorescence); type: cell-based, human; conditions: compounds at GI50 concentration, TBHP and NAC 20 μM
Description: HT29 colon cells were stained by DCFH-DA and then treated with the compounds at each specific GI50 concentration. Upon ROS production, the DCFH-DA produced […], a fluorescent product. The measured fluorescence was, therefore, proportional to the produced ROS. […] 56CLB at 24 h reported 395 RFU, 437 RFU at 48 h, and 558 RFU at 72 h (Table 6, Figure 14 and Figure S42), respectively, showing a significant production of ROS in comparison to control cells. 5CLB at 24 h produced 337 RFU, 324 RFU at 48 h, and 376 RFU at 72 h (Table 6, Figure 14 and Figure S42), respectively.
To investigate for the presence of ROS in treated cells, DCFDA/H2DCFDA-cellular ROS Assay Kit (Abcam, Cambridge, MA, USA) was used, as described. A total of 25,000 cells/mL of HT29 cells in DMEM were seeded in 96-well plates. Cells were washed with 1X kit buffer, then stained with 25 μM 2’,7’-dichlorofluorescein diacetate (DCFH-DA) and incubated for 45 min. DCFH-DA was then removed, and cells were then re-washed with 1X kit buffer, after which phenol red free media was added. Cells were then treated with GI50 drug concentration for each complex. The plates were directly scanned to measure fluorescence (relative fluorescence units (RFU)) at different time points using the Glo-Max®-Multimode microplate reader (Promega Corporation, Alexandra, VIC, Australia) at an excitation/emission of 485/535 nm. To generate the positive control (20 μM tert-butyl hydroperoxide (TBHP)), cells were washed with 1X kit buffer, and stained with DCFDA (25 μM) for 45 min. DCFDA was then removed and TBHP was added in phenol red free media. The plate was scanned to measure the RFU at different time points as mentioned above. The same method applies for the negative control treated with 20 μM N-acetylcysteine (NAC).

A2780 ovarian = assay: MTT growth inhibition assay, 72 h; type: cell-based, human
[1] = Lipophilicity by HPLC (log kw); type: physicochemical; conditions: chromatographic lipophilicity index, extrapolated to 100% d.i.H2O
Excerpt: For lipophilicity measurements, HPLC was utilized instead of the traditional shake-flask method, as described. A few studies have also reported the important and effective use of HPLC to measure the lipophilicity of compounds [66, 67]. Each complex was eluted under several isocratic ratios. A standard curve was then generated to calculate the log value of the capacity factor (log k) according to eqn (1). Following eqn (2), the percentage of organic solvent (CH3CN) in the mobile phase from each isocratic run was plotted against […] (Figure S34). Since log kw is the chromatographic lipophilicity index or measure of lipophilicity of the complex, a higher value corresponds to greater lipophilicity. Since PCLB, 5CLB, and 56CLB are structurally related, there were no significant variations in lipophilicity noted based on the calculated log kw values (Table 4). It is evident that PCLB is the least lipophilic of the group, with a calculated log kw value of 1.80, which is likely due to the absence of methyl groups in its phenanthroline system. 5CLB and 56CLB were the most lipophilic of the group with calculated log kw values of 1.90 and 1.87, respectively, and this is due to the presence of methyl substituents in their phenanthroline systems. […] Additionally, the chromatographic lipophilicity index of CLB was also measured using the abovementioned method, with a calculated log kw of 1.88, which is within the range observed for PCLB, 5CLB, and 56CLB. However, CLB was approximately 1-fold more lipophilic than PCLB. […] The order of increasing lipophilicity is […].
For lipophilicity measurements, analytical HPLC was utilized. Elution profiles were acquired on an Agilent Technologies 1260 Infinity instrument equipped with a Phenomenex Onyx^TM Monolithic C18-reverse phase column (100 × 4.6 mm, 5 µm pore size). The mobile phase consisted of solvents, A (0.06% TFA in d.i.H2O) and B (0.06% TFA in CH3CN/d.i.H2O (90:10)). Potassium iodide was used as an external dead volume marker to determine the dead time of the column. Retention times (TR) were measured at varying isocratic ratios ranging from 42% to 48% of solvent B at 1 mL/min. An injection volume of 10 µL was utilized. Capacity factors were determined according to Equation (1):(1) k=(TR−T0)/T0, where k is the capacity factor, TR is the retention time of the analyte, and T0 represents the dead time. A minimum of four different mobile compositions were used for each complex to calculate k. A linear plot was generated of log k against the concentration of CH3CN in the mobile phase to determine the value of log kw expressed by Equation (2):(2) logk=Sφ+logkw, where S is the slope, φ is the concentration of the CH3CN in the mobile phase and log kw represents the capacity factor of the complex in 100% d.i.H2O. […]

panel of cell lines = assay: MTT growth inhibition assay, 72 h, over the cell line panel; type: cell-based, human; conditions: average over all cell lines tested; read-out: Average GI50 Values
HT29 colon = assay: MTT growth inhibition assay, 72 h; type: cell-based, human; conditions: MTT, 72 h

In the case of `Cc1cc2cccnc2c2ncccc12.N[C@H]1CCCC[C@@H]1N.O=C([O-])CCCc1ccc(N(CCCl)CCCl)cc1.O=[N+]([O-])[O-].O=[N+]([O-])[O-].[OH-].[Pt+4]` [5CLB, [Pt^IV(5-methyl-1,10-phenanthroline)(S,S-DACH)(CLB)(OH)](NO3)2], the “ROS Production” value (HT29 colon cells; 24 h) is reported as 337 RFU and 337 ± 8 RFU, the “ROS Production” value (HT29 colon cells; 48 h) is reported as 324 RFU and 324 ± 5 RFU and the “ROS Production” value (HT29 colon cells; 72 h) is reported as 376 RFU and 376 ± 1 RFU. For the same molecule, the GI50 (A2780 ovarian) was 46 ± 0.015 nM, the log kw [1] was 1.90 and 1.87 and the GI50 (panel of cell lines) was 94 ± 0.01 nM. For the same molecule, the GI50 (HT29 colon) was 19 ± 0.0054 nM.

With `Cc1c(C)c2cccnc2c2ncccc12.N[C@H]1CCCC[C@@H]1N.O=C([O-])CCCc1ccc(N(CCCl)CCCl)cc1.O=[N+]([O-])[O-].O=[N+]([O-])[O-].[OH-].[Pt+4]` [56CLB, [Pt^IV(5,6-dimethyl-1,10-phenanthroline)(S,S-DACH)(CLB)(OH)](NO3)2] the “ROS Production” value (HT29 colon cells; 24 h) was 395 RFU and 395 ± 3 RFU, the “ROS Production” value (HT29 colon cells; 48 h) was 437 RFU and 437 ± 2 RFU and the “ROS Production” value (HT29 colon cells; 72 h) was 558 RFU and 558 ± 2 RFU. The GI50 (A2780 ovarian) was 21 ± 0.0047 nM, the log kw [1] was 1.87 and 1.90 and the GI50 (panel of cell lines) was 40 nM and 44 nM. For the same molecule, the GI50 (HT29 colon) was 6 nM and 6.1 nM.

For `O=C(CCCc1ccc(N(CCCl)CCCl)cc1)[O][Pt-2]12([OH])([NH2+][C@H]3CCCC[C@@H]3[NH2+]1)[n+]1cccc3ccc4ccc[n+]2c4c31.O=[N+]([O-])[O-].O=[N+]([O-])[O-]` [PCLB, [Pt^IV(1,10-phenanthroline)(S,S-DACH)(CLB)(OH)](NO3)2], the “ROS Production” value (HT29 colon cells; 24 h) was 190 RFU and 190 ± 2 RFU, the “ROS Production” value (HT29 colon cells; 48 h) was 244 RFU and 244 ± 7 RFU and the “ROS Production” value (HT29 colon cells; 72 h) was 285 RFU and 285 ± 3 RFU. For the same molecule, the GI50 (A2780 ovarian) was 300 ± 0.048 nM, the log kw [1] was 1.80 and the GI50 (panel of cell lines) was 423 ± 0.07 nM. The GI50 (HT29 colon) was 170 ± 0.046 nM.
